Source: ChEMBL document CHEMBL4507289, “Data for DCP probe GSM1” (2021)

Tests used:
[1] = target: Tyrosine-protein kinase HCK (Homo sapiens) (UniProt P08631); conditions: Compound concentration 1000.0 nM
[2] = target: Mitogen-activated protein kinase kinase kinase 13 (Homo sapiens) (UniProt O43283); conditions: Compound concentration 1000.0 nM
[3] = target: Membrane-associated tyrosine- and threonine-specific cdc2-inhibitory kinase (Homo sapiens) (UniProt Q99640); conditions: Compound concentration 1000.0 nM
[4] = target: NUAK family SNF1-like kinase 2 (Homo sapiens) (UniProt Q9H093); conditions: Compound concentration 1000.0 nM
Sequence of NUAK family SNF1-like kinase 2 (Homo sapiens) (Q9H093 whole entry): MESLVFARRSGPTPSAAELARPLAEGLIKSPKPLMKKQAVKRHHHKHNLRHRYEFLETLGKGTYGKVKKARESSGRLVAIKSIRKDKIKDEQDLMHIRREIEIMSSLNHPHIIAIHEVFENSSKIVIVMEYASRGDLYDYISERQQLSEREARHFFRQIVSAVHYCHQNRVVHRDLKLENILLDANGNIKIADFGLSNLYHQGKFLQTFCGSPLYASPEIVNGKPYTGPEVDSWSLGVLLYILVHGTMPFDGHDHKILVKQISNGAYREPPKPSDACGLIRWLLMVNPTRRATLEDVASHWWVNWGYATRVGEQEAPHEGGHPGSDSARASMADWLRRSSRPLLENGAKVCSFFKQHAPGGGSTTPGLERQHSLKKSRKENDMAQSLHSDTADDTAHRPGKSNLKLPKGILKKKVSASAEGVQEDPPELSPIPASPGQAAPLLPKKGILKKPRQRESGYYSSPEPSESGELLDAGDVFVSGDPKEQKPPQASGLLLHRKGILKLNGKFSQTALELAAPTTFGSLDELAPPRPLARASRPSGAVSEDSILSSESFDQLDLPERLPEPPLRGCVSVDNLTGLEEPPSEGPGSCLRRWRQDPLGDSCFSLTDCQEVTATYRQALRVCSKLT

[5] = target: D(1A) dopamine receptor (Homo sapiens) (UniProt P21728); conditions: Compound concentration 10.0 uM
[6] = target: MAP kinase-activated protein kinase 5 (Homo sapiens) (UniProt Q8IW41); conditions: Compound concentration 1000.0 nM
[7] = target: Mitogen-activated protein kinase 13 (Homo sapiens) (UniProt O15264); conditions: Compound concentration 1000.0 nM
[8] = target: Serine/threonine-protein kinase PAK 3 (Homo sapiens) (UniProt O75914); conditions: Compound concentration 1000.0 nM
[9] = target: Ephrin type-B receptor 2 (Homo sapiens) (UniProt P29323); conditions: Compound concentration 1000.0 nM
[10] = target: Phosphatidylinositol 3-kinase C2 domain-containing subunit gamma (Homo sapiens) (UniProt O75747); conditions: Compound concentration 1000.0 nM
Sequence of Phosphatidylinositol 3-kinase C2 domain-containing subunit gamma (Homo sapiens) (O75747 whole entry, the tested form may be a part): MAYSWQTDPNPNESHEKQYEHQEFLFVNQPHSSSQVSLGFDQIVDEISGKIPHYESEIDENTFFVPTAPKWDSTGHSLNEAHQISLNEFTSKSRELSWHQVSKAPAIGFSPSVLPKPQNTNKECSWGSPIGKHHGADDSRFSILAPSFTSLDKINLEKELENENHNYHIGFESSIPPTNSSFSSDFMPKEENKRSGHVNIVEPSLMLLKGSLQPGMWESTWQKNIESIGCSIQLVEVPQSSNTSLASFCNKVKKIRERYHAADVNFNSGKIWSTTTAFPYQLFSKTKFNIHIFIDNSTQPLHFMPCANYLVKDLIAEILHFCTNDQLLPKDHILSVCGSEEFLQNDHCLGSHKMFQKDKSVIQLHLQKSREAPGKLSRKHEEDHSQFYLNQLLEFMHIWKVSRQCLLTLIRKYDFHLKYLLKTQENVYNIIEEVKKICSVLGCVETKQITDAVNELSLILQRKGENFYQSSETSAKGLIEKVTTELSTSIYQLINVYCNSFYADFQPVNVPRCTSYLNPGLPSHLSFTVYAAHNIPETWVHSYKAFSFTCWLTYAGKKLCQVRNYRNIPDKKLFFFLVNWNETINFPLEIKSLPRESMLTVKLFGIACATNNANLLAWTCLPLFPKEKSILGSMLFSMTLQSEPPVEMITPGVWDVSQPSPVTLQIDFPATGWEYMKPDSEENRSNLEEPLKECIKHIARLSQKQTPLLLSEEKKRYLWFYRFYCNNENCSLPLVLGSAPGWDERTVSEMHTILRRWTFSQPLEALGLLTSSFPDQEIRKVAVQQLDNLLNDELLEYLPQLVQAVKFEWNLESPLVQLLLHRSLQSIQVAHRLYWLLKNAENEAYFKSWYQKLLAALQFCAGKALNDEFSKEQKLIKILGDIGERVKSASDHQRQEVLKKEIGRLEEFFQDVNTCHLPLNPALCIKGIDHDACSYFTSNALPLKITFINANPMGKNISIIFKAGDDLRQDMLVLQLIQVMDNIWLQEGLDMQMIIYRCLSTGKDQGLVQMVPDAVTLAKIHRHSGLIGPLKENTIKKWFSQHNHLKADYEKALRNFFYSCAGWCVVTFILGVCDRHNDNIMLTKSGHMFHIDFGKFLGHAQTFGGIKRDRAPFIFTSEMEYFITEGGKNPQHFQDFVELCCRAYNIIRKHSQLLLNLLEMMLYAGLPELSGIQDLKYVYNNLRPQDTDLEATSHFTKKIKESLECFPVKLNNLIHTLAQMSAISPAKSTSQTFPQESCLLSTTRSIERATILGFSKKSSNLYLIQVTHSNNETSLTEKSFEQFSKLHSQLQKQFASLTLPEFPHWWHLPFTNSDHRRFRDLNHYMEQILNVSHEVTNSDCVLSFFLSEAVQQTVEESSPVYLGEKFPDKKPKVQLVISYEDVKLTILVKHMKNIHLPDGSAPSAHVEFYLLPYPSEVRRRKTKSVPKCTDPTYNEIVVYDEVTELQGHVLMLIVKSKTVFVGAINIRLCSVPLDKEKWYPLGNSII

[11] = target: Calcium/calmodulin-dependent protein kinase type 1B (Homo sapiens) (UniProt Q6P2M8); conditions: Compound concentration 1000.0 nM
[12] = target: Eukaryotic translation initiation factor 2-alpha kinase 1 (Homo sapiens) (UniProt Q9BQI3); conditions: Compound concentration 1000.0 nM
[13] = target: Dual specificity mitogen-activated protein kinase kinase 6 (Homo sapiens) (UniProt P52564); conditions: Compound concentration 1000.0 nM
[14] = tested on: Receptor-type tyrosine-protein kinase FLT3 (Homo sapiens), P36888 [UNDEFINED MUTATION]; conditions: Compound concentration 1000.0 nM
[15] = target: Mitogen-activated protein kinase 12 (Homo sapiens) (UniProt P53778); conditions: Compound concentration 1000.0 nM
[16] = target: Myotonin-protein kinase (Homo sapiens) (UniProt Q09013); conditions: Compound concentration 1000.0 nM
[17] = target: Tyrosine-protein kinase Fyn (Homo sapiens) (UniProt P06241); conditions: Compound concentration 1000.0 nM
[18] = tested on: Mast/stem cell growth factor receptor Kit (Homo sapiens), P10721 [D816H]; conditions: Compound concentration 1000.0 nM
[19] = target: Serine/threonine-protein kinase ULK2 (Homo sapiens) (UniProt Q8IYT8); conditions: Compound concentration 1000.0 nM
[20] = target: Receptor-type tyrosine-protein kinase FLT3 (Homo sapiens) (UniProt P36888); conditions: Compound concentration 1000.0 nM
[21] = target: Tyrosine-protein kinase Srms (Homo sapiens) (UniProt Q9H3Y6); conditions: Compound concentration 1000.0 nM
[22] = target: Calcium/calmodulin-dependent protein kinase kinase 1 (Homo sapiens) (UniProt Q8N5S9); conditions: Compound concentration 1000.0 nM
[23] = target: STE20/SPS1-related proline-alanine-rich protein kinase (Homo sapiens) (UniProt Q9UEW8); conditions: Compound concentration 1000.0 nM
[24] = target: Cyclin-dependent kinase 9 (Homo sapiens) (UniProt P50750); conditions: Compound concentration 1000.0 nM
[25] = target: Beta-adrenergic receptor kinase 1 (Homo sapiens) (UniProt P25098); conditions: Compound concentration 1000.0 nM
Sequence of Beta-adrenergic receptor kinase 1 (Homo sapiens) (P25098 whole entry): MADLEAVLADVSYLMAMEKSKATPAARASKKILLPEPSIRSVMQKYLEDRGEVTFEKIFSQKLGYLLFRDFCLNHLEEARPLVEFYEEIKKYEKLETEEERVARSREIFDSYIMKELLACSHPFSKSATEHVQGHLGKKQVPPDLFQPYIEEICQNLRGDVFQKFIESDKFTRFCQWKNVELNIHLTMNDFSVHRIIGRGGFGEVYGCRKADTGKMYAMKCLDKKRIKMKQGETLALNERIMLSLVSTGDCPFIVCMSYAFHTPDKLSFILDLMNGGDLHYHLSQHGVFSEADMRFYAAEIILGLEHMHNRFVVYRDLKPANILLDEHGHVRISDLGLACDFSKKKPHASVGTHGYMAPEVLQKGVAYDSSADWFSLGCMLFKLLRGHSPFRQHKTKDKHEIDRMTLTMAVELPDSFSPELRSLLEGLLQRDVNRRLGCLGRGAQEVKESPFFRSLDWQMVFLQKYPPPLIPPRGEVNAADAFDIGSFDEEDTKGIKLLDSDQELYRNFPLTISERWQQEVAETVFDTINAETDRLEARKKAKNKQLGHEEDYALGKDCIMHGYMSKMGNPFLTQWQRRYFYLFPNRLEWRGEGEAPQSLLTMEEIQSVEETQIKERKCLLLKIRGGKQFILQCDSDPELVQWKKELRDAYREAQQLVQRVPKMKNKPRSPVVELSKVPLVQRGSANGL

[26] = target: Aurora kinase C (Homo sapiens) (UniProt Q9UQB9); conditions: Compound concentration 1000.0 nM
Sequence of Aurora kinase C (Homo sapiens) (Q9UQB9 whole entry): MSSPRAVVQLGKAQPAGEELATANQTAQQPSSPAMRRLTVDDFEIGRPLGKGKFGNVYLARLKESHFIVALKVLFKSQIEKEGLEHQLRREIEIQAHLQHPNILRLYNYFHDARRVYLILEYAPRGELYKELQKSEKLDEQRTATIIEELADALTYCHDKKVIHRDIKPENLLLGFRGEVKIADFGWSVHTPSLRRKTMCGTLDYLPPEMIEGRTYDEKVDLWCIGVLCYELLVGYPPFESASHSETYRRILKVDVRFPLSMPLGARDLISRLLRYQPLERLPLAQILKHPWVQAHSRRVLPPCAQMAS

[27] = target: D(2) dopamine receptor (Homo sapiens) (UniProt P14416); conditions: Compound concentration 10.0 uM
Sequence of D(2) dopamine receptor (Homo sapiens) (P14416 whole entry): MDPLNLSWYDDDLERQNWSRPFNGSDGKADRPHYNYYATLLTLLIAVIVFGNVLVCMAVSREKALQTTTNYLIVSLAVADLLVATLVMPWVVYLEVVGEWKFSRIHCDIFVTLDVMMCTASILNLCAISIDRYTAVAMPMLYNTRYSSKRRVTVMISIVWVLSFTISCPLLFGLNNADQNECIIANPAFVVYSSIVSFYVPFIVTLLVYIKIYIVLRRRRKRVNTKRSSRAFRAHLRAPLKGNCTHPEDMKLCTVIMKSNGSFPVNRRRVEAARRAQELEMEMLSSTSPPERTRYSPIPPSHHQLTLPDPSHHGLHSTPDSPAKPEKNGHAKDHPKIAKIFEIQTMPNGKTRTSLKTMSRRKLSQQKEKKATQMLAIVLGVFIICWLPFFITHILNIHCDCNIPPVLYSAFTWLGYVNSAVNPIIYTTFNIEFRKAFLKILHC

[28] = target: Inhibitor of nuclear factor kappa-B kinase subunit alpha (Homo sapiens) (UniProt O15111); conditions: Compound concentration 1000.0 nM
Sequence of Inhibitor of nuclear factor kappa-B kinase subunit alpha (Homo sapiens) (O15111 whole entry): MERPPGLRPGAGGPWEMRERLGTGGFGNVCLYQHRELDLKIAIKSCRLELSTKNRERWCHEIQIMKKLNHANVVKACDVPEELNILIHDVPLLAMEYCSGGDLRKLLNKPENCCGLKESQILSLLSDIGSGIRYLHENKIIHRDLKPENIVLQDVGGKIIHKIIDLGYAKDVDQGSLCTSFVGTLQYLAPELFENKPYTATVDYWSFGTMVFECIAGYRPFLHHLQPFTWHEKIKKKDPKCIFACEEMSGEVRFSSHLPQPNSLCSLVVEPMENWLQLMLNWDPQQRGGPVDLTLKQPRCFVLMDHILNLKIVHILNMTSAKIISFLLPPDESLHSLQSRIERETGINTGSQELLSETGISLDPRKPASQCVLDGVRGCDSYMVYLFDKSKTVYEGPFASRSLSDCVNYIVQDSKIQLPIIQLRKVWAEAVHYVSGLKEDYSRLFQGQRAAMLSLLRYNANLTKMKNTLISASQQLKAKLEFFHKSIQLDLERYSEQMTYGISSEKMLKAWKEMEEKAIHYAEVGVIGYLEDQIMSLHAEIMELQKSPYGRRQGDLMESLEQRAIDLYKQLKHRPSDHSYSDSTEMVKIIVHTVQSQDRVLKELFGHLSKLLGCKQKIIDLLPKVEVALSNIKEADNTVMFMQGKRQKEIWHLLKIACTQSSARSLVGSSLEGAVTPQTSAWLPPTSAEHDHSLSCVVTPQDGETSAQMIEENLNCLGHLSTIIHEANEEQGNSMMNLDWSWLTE

[29] = target: Platelet-derived growth factor receptor alpha (Homo sapiens) (UniProt P16234); conditions: Compound concentration 1000.0 nM
[30] = target: Serine/threonine-protein kinase Nek1 (Homo sapiens) (UniProt Q96PY6); conditions: Compound concentration 1000.0 nM
[31] = tested on: Receptor-type tyrosine-protein kinase FLT3 (Homo sapiens), P36888 [D835H]; conditions: Compound concentration 1000.0 nM
[32] = target: Serine/threonine-protein kinase Nek3 (Homo sapiens) (UniProt P51956); conditions: Compound concentration 1000.0 nM
[33] = target: Casein kinase I isoform gamma-1 (Homo sapiens) (UniProt Q9HCP0); conditions: Compound concentration 1000.0 nM
[34] = target: Tyrosine-protein kinase Lyn (Homo sapiens) (UniProt P07948); conditions: Compound concentration 1000.0 nM
[35] = target: SRSF protein kinase 3 (Homo sapiens) (UniProt Q9UPE1); conditions: Compound concentration 1000.0 nM
[36] = target: 5-hydroxytryptamine receptor 7 (Homo sapiens) (UniProt P34969); conditions: Compound concentration 10.0 uM
[37] = target: Ephrin type-B receptor 1 (Homo sapiens) (UniProt P54762); conditions: Compound concentration 1000.0 nM
[38] = target: Mitogen-activated protein kinase kinase kinase kinase 2 (Homo sapiens) (UniProt Q12851); conditions: Compound concentration 1000.0 nM
[39] = target: Sodium-dependent serotonin transporter (Homo sapiens, UniProt P31645); experiment: GPCRScan assay: inhibition of SERT; parameters: radioligand conc. used [nm] 1.5 – 2.0, parental cells stable HEK
Sequence of Sodium-dependent serotonin transporter (P31645 whole entry): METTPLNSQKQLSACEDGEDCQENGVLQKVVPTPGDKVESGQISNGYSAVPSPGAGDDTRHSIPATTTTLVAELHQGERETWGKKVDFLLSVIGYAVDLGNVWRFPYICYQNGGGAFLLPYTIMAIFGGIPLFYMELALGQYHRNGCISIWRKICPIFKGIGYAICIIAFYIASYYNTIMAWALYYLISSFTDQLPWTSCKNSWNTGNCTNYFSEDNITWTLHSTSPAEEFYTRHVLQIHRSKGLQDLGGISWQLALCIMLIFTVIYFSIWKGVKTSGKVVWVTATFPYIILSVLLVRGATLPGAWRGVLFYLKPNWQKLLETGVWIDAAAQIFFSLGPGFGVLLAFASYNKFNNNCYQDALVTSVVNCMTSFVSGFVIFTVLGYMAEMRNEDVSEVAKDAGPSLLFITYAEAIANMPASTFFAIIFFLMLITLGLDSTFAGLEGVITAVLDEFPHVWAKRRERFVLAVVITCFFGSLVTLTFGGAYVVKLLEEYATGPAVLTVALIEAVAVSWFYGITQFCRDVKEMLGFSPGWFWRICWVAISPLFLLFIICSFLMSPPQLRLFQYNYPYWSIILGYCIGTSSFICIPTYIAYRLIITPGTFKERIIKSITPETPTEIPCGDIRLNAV

[40] = target: Serine/threonine-protein kinase TBK1 (Homo sapiens) (UniProt Q9UHD2); conditions: Compound concentration 1000.0 nM
[41] = tested on: Mast/stem cell growth factor receptor Kit (Homo sapiens), P10721 [V559D,T670I]; conditions: Compound concentration 1000.0 nM
[42] = target: LIM domain kinase 1 (Homo sapiens) (UniProt P53667); conditions: Compound concentration 1000.0 nM
[43] = target: Cyclin-dependent kinase 3 (Homo sapiens) (UniProt Q00526); conditions: Compound concentration 1000.0 nM
[44] = target: Mitogen-activated protein kinase kinase kinase kinase 3 (Homo sapiens) (UniProt Q8IVH8); conditions: Compound concentration 1000.0 nM
[45] = target: Proto-oncogene tyrosine-protein kinase ROS (Homo sapiens) (UniProt P08922); conditions: Compound concentration 1000.0 nM

COc1cc(-c2cn([C@H]3CCc4c(F)cccc4N(CC(F)(F)F)C3=O)nn2)ccc1-n1cnc(C)c1
residual activity [1]: 100%
residual activity [2]: 75%
residual activity [3]: 100%
residual activity [4]: 100%
inhibition [5]: 5.87%
residual activity [6]: 100%
residual activity [7]: 100%
residual activity [8]: 100%
residual activity [9]: 100%
residual activity [10]: 72%
residual activity [11]: 100%
residual activity [12]: 100%
residual activity [13]: 100%
residual activity [14]: 100%
residual activity [15]: 79%
residual activity [16]: 99%
residual activity [17]: 100%
residual activity [18]: 67%
residual activity [19]: 100%
residual activity [20]: 89%
residual activity [21]: 100%
residual activity [22]: 100%
residual activity [23]: 100%
residual activity [24]: 97%
residual activity [25]: 100%
residual activity [26]: 100%
inhibition [27]: 31.2%
residual activity [28]: 100%
residual activity [29]: 100%
residual activity [30]: 100%
residual activity [31]: 98%
residual activity [32]: 86%
residual activity [33]: 86%
residual activity [34]: 100%
residual activity [35]: 100%
inhibition [36]: 26.8%
residual activity [37]: 100%
residual activity [38]: 100%
Ki ([39]; read-out: Ki): 24 nM
residual activity [40]: 100%
residual activity [41]: 94%
residual activity [42]: 100%
residual activity [43]: 100%
residual activity [44]: 100%
residual activity [45]: 100%

COc1cc(-c2cn([C@H]3CCc4ccccc4N(CC(F)(F)F)C3=O)nn2)ccc1-n1ccc(C)n1
residual activity [1]: 100%
residual activity [2]: 84%
residual activity [3]: 100%
residual activity [4]: 88%
inhibition [5]: 3.62%
residual activity [6]: 91%
residual activity [7]: 88%
residual activity [8]: 100%
residual activity [9]: 100%
residual activity [10]: 65%
residual activity [11]: 100%
residual activity [12]: 93%
residual activity [13]: 100%
residual activity [14]: 98%
residual activity [15]: 100%
residual activity [16]: 96%
residual activity [17]: 94%
residual activity [18]: 75%
residual activity [19]: 88%
residual activity [20]: 85%
residual activity [21]: 84%
residual activity [22]: 100%
residual activity [23]: 98%
residual activity [24]: 100%
residual activity [25]: 87%
residual activity [26]: 100%
inhibition [27]: 7.85%
residual activity [28]: 98%
residual activity [29]: 88%
residual activity [30]: 100%
residual activity [31]: 100%
residual activity [32]: 100%
residual activity [33]: 77%
residual activity [34]: 100%
residual activity [35]: 100%
inhibition [36]: 5.84%
residual activity [37]: 100%
residual activity [38]: 80%
Ki ([39]; read-out: Ki): 391 nM
Ki ([39]; read-out: pKi (converted)): 380 nM
residual activity [40]: 88%
residual activity [41]: 92%
residual activity [42]: 100%
residual activity [43]: 100%
residual activity [44]: 100%
residual activity [45]: 100%
